Experimental data from article PMC9944328 (Nature Communications, 2023).
Where two headings read alike, the source gives them in different places.

Test system: SSTR2 mutants
Test: NanoBiT β-arrestin 1 recruitment assay, HEK293 (SSTR2 mutants);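 for Best-fit values Bottom: percent of maximal wild-type response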;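 for Best-fit values Span: percent of maximal wild-type response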;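 for Best-fit values Top: percent of maximal wild-type response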;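 for Bottom (best-fit): percent of maximal wild-type response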;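 for Span (best-fit): percent of maximal wild-type response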;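 for Top (best-fit value): percent of maximal wild-type response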;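 for Top (best-fit): percent of maximal wild-type response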;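 for Top: percent of maximal wild-type response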
Format: cell-based, human
Design: Bottom / Span / Bottom (best-fit) / Span (best-fit) / Best-fit values Bottom / Best-fit values Span / Bottom (best-fit value) / Span (best-fit value):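 percent of maximal wild-type response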
Method: The NanoBiT β-arrestin 1 recruitment assays were carried out according to the method described previously. […] Human full-length SSTR wild-type and mutant vectors were C-terminally fused with a 15-amino acid flexible linker and the small fragment (SmBiT). HEK293 cells were seeded into six-well microplates at a density of 1.0 × 10^6 cells/well and cultured for 24 h at 37 °C with 5% CO2. After that, cells were co-transfected with pcDNA3.1+ vectors encoding SSTR wild-type or mutants and human β-arrestin 1. After transfecting for 24 h, the transfected cells were suspended and seeded into white 96-well plates, and then cultured at 37 °C overnight. After that the medium in each well was exchanged for 90 μl of 0.01% bovine serum albumin containing 20 μl of 50 μM coelenterazine h (Carbosynth) diluted in the HBSS assay buffer and incubated for 40 min at room temperature. Then, ligands diluted in the assay buffer was added to each well and the luminescence intensity was measured using the Synergy H1 microplate reader and detected at room temperature in a time period. All data presented are means of at least three independent experiments.

[1] = D295A-1 (run 1), β-arrestin1 recruitment
[2] = D295A-2 (run 2), β-arrestin1 recruitment
[3] = D295A-3 (run 3), β-arrestin1 recruitment
[4] = L290A-1 (run 1), β-arrestin1 recruitment
[5] = L290A-2 (run 2), β-arrestin1 recruitment
[6] = L290A-3 (run 3), β-arrestin1 recruitment
[7] = S279A-1 (run 1), β-arrestin1 recruitment
[8] = S279A-2 (run 2), β-arrestin1 recruitment
[9] = S279A-3 (run 3), β-arrestin1 recruitment
[10] = Y302A-1 (run 1), β-arrestin1 recruitment
[11] = Y302A-2 (run 2), β-arrestin1 recruitment
[12] = Y302A-3 (run 3), β-arrestin1 recruitment
[13] = best-fit value, I195A-1 (run 1)
[14] = best-fit value, I195A-2 (run 2)
[15] = best-fit value, I195A-3 (run 3)

Structure (SMILES): C[C@@H](O)[C@@H]1NC(=O)[C@H](CCCCN)NC(=O)[C@@H](Cc2c[nH]c3ccccc23)NC(=O)[C@H](Cc2ccccc2)NC(=O)[C@@H](NC(=O)[C@H](N)Cc2ccccc2)CSSC[C@@H](C(=O)N[C@H](CO)[C@@H](C)O)NC1=O [octreotide]
- Bottom (best-fit value) [1]: 0.2059
- LogEC50 (best-fit value) [1]: -6.975
- Span (best-fit value) [1]: 90.14
- Top (best-fit value) [1]: 90.34
- EC50 (D295A-1 (run 1), β-arrestin1 recruitment, read-out: EC50 (best-fit value)): 106 nM
- Bottom (best-fit value) [2]: -0.553
- LogEC50 (best-fit value) [2]: -6.954
- Span (best-fit value) [2]: 94.35
- Top (best-fit value) [2]: 93.8
- EC50 (D295A-2 (run 2), β-arrestin1 recruitment, read-out: EC50 (best-fit value)): 111 nM
- Bottom (best-fit value) [3]: -6.587
- LogEC50 (best-fit value) [3]: -6.025
- Span (best-fit value) [3]: 251.8
- Top (best-fit value) [3]: 245.2
- EC50 (D295A-3 (run 3), β-arrestin1 recruitment, read-out: EC50 (best-fit value)): 944 nM
- Bottom (best-fit) (F127A-1): -1.151
- LogEC50 (best-fit) (F127A-1): -8.337
- Span (best-fit) (F127A-1): 58.78
- Top (best-fit) (F127A-1): 57.63
- EC50 (F127A-1, read-out: EC50 (best-fit)): 4.6 nM
- Bottom (best-fit) (F127A-2): -1.134
- LogEC50 (best-fit) (F127A-2): -8.363
- Span (best-fit) (F127A-2): 52.24
- Top (best-fit) (F127A-2): 51.1
- EC50 (F127A-2, read-out: EC50 (best-fit)): 4.33 nM
- Bottom (best-fit) (F127A-3): -1.083
- LogEC50 (best-fit) (F127A-3): -8.391
- Span (best-fit) (F127A-3): 50.21
- Top (best-fit) (F127A-3): 49.13
- EC50 (F127A-3, read-out: EC50 (best-fit)): 4.07 nM
- Bottom (best-fit) (F208A-1): -1.787
- LogEC50 (best-fit) (F208A-1): -6.773
- Span (best-fit) (F208A-1): 82.48
- Top (best-fit) (F208A-1): 80.69
- EC50 (F208A-1, read-out: EC50 (best-fit)): 169 nM
- Bottom (best-fit) (F208A-2): -1.774
- LogEC50 (best-fit) (F208A-2): -6.823
- Span (best-fit) (F208A-2): 91.81
- Top (best-fit) (F208A-2): 90.03
- EC50 (F208A-2, read-out: EC50 (best-fit)): 150 nM
- Bottom (best-fit) (F208A-3): -1.249
- LogEC50 (best-fit) (F208A-3): -6.77
- Span (best-fit) (F208A-3): 80.71
- Top (best-fit) (F208A-3): 79.46
- EC50 (F208A-3, read-out: EC50 (best-fit)): 170 nM
- β-arrestin recruitment of mutant (F294(7.35)A): nearly impaired the octreotide-induced β-arrestin recruitment
- β-arrestin signal of mutants (I284ECL3A and K291(7.32)A): reduced potency and efficacy of octreotide induced β-arrestin signal
- Bottom (best-fit value) [4]: 5.848
- LogEC50 (best-fit value) [4]: -8.723
- Span (best-fit value) [4]: 78.77
- Top (best-fit value) [4]: 84.62
- EC50 (L290A-1 (run 1), β-arrestin1 recruitment, read-out: EC50 (best-fit value)): 1.89 nM
- Bottom (best-fit value) [5]: 5.656
- LogEC50 (best-fit value) [5]: -8.77
- Span (best-fit value) [5]: 81.03
- Top (best-fit value) [5]: 86.69
- EC50 (L290A-2 (run 2), β-arrestin1 recruitment, read-out: EC50 (best-fit value)): 1.7 nM
- Bottom (best-fit value) [6]: -1.116
- LogEC50 (best-fit value) [6]: -8.203
- Span (best-fit value) [6]: 76.53
- Top (best-fit value) [6]: 75.41
- EC50 (L290A-3 (run 3), β-arrestin1 recruitment, read-out: EC50 (best-fit value)): 6.27 nM
- β-arrestin recruitment of mutant (N276(6.55)A): nearly abolished the recruitment of β-arrestin
- Best-fit values Bottom (P220A-1): 0.1149
- Best-fit values LogEC50 (P220A-1): -6.553
- Best-fit values Span (P220A-1): 34.49
- Best-fit values Top (P220A-1): 34.6
- EC50 (P220A-1, read-out: Best-fit values EC50): 280 nM
- Best-fit values Bottom (P220A-2): -0.6221
- Best-fit values LogEC50 (P220A-2): -7.989
- Best-fit values Span (P220A-2): 58.87
- Best-fit values Top (P220A-2): 58.25
- EC50 (P220A-2, read-out: Best-fit values EC50): 10.3 nM
- Best-fit values Bottom (P220A-3): -0.6988
- Best-fit values LogEC50 (P220A-3): -8.034
- Best-fit values Span (P220A-3): 50.86
- Best-fit values Top (P220A-3): 50.16
- EC50 (P220A-3, read-out: Best-fit values EC50): 9.24 nM
- Bottom (best-fit value) [7]: -1.308
- LogEC50 (best-fit value) [7]: -8.149
- Span (best-fit value) [7]: 94.92
- Top (best-fit value) [7]: 93.61
- EC50 (S279A-1 (run 1), β-arrestin1 recruitment, read-out: EC50 (best-fit value)): 7.09 nM
- Bottom (best-fit value) [8]: -2.227
- Span (best-fit value) [8]: 74.73
- Top (best-fit value) [8]: 72.5
- EC50 (S279A-2 (run 2), β-arrestin1 recruitment, read-out: EC50 (best-fit value)): 21.4 nM
- Bottom (best-fit value) [9]: 0.9887
- LogEC50 (best-fit value) [9]: -6.436
- Span (best-fit value) [9]: 131.8
- Top (best-fit value) [9]: 132.8
- EC50 (S279A-3 (run 3), β-arrestin1 recruitment, read-out: EC50 (best-fit value)): 366 nM
- Best-fit values Bottom (W269A-1): 0.3902
- Best-fit values LogEC50 (W269A-1): -7.096
- Best-fit values Span (W269A-1): 27.42
- Best-fit values Top (W269A-1): 27.81
- EC50 (W269A-1, read-out: Best-fit values EC50): 80.1 nM
- Best-fit values LogEC50 (W269A-2): -7.281
- Best-fit values Span (W269A-2): 32.61
- Best-fit values Top (W269A-2): 36.93
- EC50 (W269A-2, read-out: Best-fit values EC50): 52.3 nM
- Best-fit values Bottom (W269A-3): 3.687
- Best-fit values LogEC50 (W269A-3): -7.475
- Best-fit values Span (W269A-3): 31.64
- Best-fit values Top (W269A-3): 35.33
- EC50 (W269A-3, read-out: Best-fit values EC50): 33.5 nM
- Bottom (best-fit) (Y205A-1): -3.221
- LogEC50 (best-fit) (Y205A-1): -7.699
- Span (best-fit) (Y205A-1): 139.2
- Top (best-fit) (Y205A-1): 135.9
- EC50 (Y205A-1, read-out: EC50 (best-fit)): 20 nM
- Bottom (best-fit) (Y205A-2): -1.321
- LogEC50 (best-fit) (Y205A-2): -8.57
- Span (best-fit) (Y205A-2): 93.02
- Top (best-fit) (Y205A-2): 91.7
- EC50 (Y205A-2, read-out: EC50 (best-fit)): 2.69 nM
- Bottom (best-fit) (Y205A-3): 0.3514
- LogEC50 (best-fit) (Y205A-3): -7.837
- Span (best-fit) (Y205A-3): 328.7
- Top (best-fit) (Y205A-3): 329.1
- EC50 (Y205A-3, read-out: EC50 (best-fit)): 14.5 nM
- β-arrestin recruitment of mutant (Y302(7.43)A): slightly impaired
- Bottom (best-fit value) [10]: -0.3068
- LogEC50 (best-fit value) [10]: -8.733
- Span (best-fit value) [10]: 87.43
- Top (best-fit value) [10]: 87.12
- EC50 (Y302A-1 (run 1), β-arrestin1 recruitment, read-out: EC50 (best-fit value)): 1.85 nM
- Bottom (best-fit value) [11]: 0.826
- LogEC50 (best-fit value) [11]: -8.763
- Span (best-fit value) [11]: 86.05
- Top (best-fit value) [11]: 86.87
- EC50 (Y302A-2 (run 2), β-arrestin1 recruitment, read-out: EC50 (best-fit value)): 1.72 nM
- Bottom (best-fit value) [12]: 1.139
- LogEC50 (best-fit value) [12]: -8.739
- Span (best-fit value) [12]: 85.71
- Top (best-fit value) [12]: 86.85
- EC50 (Y302A-3 (run 3), β-arrestin1 recruitment, read-out: EC50 (best-fit value)): 1.82 nM
- Bottom [13]: -0.3262
- LogEC50 [13]: -7.224
- Span [13]: 58.86
- Top [13]: 58.54
- EC50 (best-fit value, I195A-1 (run 1), read-out: EC50): 59.8 nM
- Bottom [14]: -0.9813
- LogEC50 [14]: -7.334
- Span [14]: 61.03
- Top [14]: 60.04
- EC50 (best-fit value, I195A-2 (run 2), read-out: EC50): 46.3 nM
- Bottom [15]: -0.6923
- LogEC50 [15]: -7.245
- Span [15]: 59.4
- Top [15]: 58.71
- EC50 (best-fit value, I195A-3 (run 3), read-out: EC50): 56.9 nM
- Bottom (best-fit value, L99A-1 (run 1)): 17.86
- LogEC50 (best-fit value, L99A-1 (run 1)): -6.902
- Span (best-fit value, L99A-1 (run 1)): 95.94
- Top (best-fit value, L99A-1 (run 1)): 113.8
- Bottom (best-fit value, L99A-2 (run 2)): -2.171
- LogEC50 (best-fit value, L99A-2 (run 2)): -7.606
- Span (best-fit value, L99A-2 (run 2)): 48.46
- Top (best-fit value, L99A-2 (run 2)): 46.29
- EC50 (best-fit value, L99A-2 (run 2), read-out: EC50): 24.8 nM
- Bottom (best-fit value, L99A-3 (run 3)): -2.89
